What is called melting point is the temperature, or range, at which the solid turns liquid.

`Cn1ncc2cc(-c3nc(C(=O)O)c(Cl)c(N)c3F)ccc21` [Compound 4.04]: the melting point lay in the range of 186 to 188 °C.
To `Cn1ncc2c(-c3nc(C(=O)O)c(Cl)c(N)c3F)cccc21` [Compound 4.11] belongs 173 to 175 °C; to `COC(=O)c1nc(-c2cccc3[nH]ncc23)c(F)c(N)c1Cl` [Compound 4.12], 212 to 215 °C; to `COC(=O)c1nc(-c2ccc3nc[nH]c3c2)c(F)c(N)c1Cl` [Compound 7.01], 219 to 221 °C.
As for `Cn1cnc2ccc(-c3nc(C(=O)O)c(Cl)c(N)c3F)cc21` [Compound 7.03], the figure is 230 to 235 °C (dec.).

For the origin of these results see patent US20170050957A1, “4-AMINO-6-(HETEROCYCLIC)PICOLINATES AND 6-AMINO-2-(HETEROCYCLIC)PYRIMIDINE-4-CARBOXYLATES AND THEIR USE AS HERBICIDES” (Dow AgroSciences LLC, priority 2013, published 2017).
